Drawing on US20260022143A1, “Cyclic Peptide Inhibitors of IL-23” (JANSSEN PHARMACEUTICA NV, priority 2022, published 2026), this text covers IC50 and EPSA for nine compounds.

One data set deals with T1, IL-23R (Homo sapiens, UniProt Q5VWK5).
T1 construct: host or cells: HEK293
T1 sequence (Q5VWK5 24-629): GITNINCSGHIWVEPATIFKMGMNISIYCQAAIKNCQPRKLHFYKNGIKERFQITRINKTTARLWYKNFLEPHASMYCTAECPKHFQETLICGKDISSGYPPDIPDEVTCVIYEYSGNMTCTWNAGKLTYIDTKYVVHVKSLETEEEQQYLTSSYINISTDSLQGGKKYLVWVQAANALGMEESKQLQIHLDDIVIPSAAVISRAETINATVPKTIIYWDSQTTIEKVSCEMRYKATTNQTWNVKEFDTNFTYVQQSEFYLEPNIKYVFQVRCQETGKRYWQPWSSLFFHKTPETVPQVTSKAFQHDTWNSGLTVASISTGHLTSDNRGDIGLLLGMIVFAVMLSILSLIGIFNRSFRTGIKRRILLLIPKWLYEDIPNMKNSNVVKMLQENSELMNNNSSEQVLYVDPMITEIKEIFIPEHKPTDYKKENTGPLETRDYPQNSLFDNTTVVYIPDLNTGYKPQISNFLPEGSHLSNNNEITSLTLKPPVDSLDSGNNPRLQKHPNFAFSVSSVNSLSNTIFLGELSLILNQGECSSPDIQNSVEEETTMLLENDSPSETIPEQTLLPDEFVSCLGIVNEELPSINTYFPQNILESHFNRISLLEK
Briefly: IL23R Reporter Assay. Format: cell-based. The following applies: HEK293 cells containing IL-23R, IL-12RP1 and STAT-inducible firefly luciferase reporter; 10 ng/mL IL-23 (EC90); 5 h at 37° C.; read-out: IL23R Reporter Assay.

A short description of data set [1]: Exposed Polar Surface Area (EPSA). Format: physicochemical. The note with it: SFC on Chirex 3014 column; sample 1 mM DMSO stock; read-out: EPSA. A digest of the protocol:
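SFC retention on a Chirex 3014 (S-valine/(R)-1-(α-naphthyl)ethylamine) column at 35 °C, 4 mL/min, 14 MPa outlet, 5–60% methanol/20 mM ammonium formate gradient in CO2. Retention times converted to EPSA (Å²) via linear calibration with 8 standards; samples from 1 mM DMSO stock, run in duplicate.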

Starred links: 1 amine or outer side, 2 acyl side, 3 side chain; linkers in the order of their positions; H or OH if unused. Positions of bridges follow the written chain, without caps; N, C: chain ends. Non-standard residues stand in square brackets, D forms with d. Residues, ends and D or L forms follow the SMILES beside them. Groups on a side chain read outwards from the residue. ξ: configuration not given here. *: point of attachment. X64 = C[N+]1(C)CCN(c2ccc(C[C@H](N[*:1])C(=O)[*:2])cc2)CC1; Me3N+(CH2)2O(CH2)2O(CH2)2CO = C[N+](C)(C)CCOCCOCCC(=O)*; CH2CH2OCH2CH2OCH2CH2NMe3+ = C[N+](C)(C)CCOCCOCC*; Trp(7-Me) = Cc1cccc2c(C[C@H](N)C(=O)O)c[nH]c12; d(hLys(Me3)) = C[N+](C)(C)CCCCC[C@@H](N)C(=O)O; Decanoyl(3,6,9-trioxa) = COCCOCCOCC(=O)*; Dab(NMeAc) = CC(=O)N(C)CC[C@H](N)C(=O)O; γGlu = O=C(O)[C@H](CCC(=O)[*:2])N[*:1]; 2Nal = N[C@@H](Cc1ccc2ccccc2c1)C(=O)O; AEF = NCCOc1ccc(C[C@H](N)C(=O)O)cc1; X24 = C[N+](C)(CCN[*:1])CC(=O)[*:2]; X22 = CN1CC[N+](C)(CCOCCOCC*)CC1; 3Pal = N[C@@H](Cc1cccnc1)C(=O)O; Myristoyl = CCCCCCCCCCCCCC(=O)*; ξThr(3R) = C[C@@H](O)C(N)C(=O)O; Lys(Me) = CNCCCC[C@H](N)C(=O)O; Pen = CC(C)(S)[C@H](N)C(=O)O; Thp = NC1(C(=O)O)CCOCC1; X3 = C[N+](C)(C)CCCCC*; AEEA = NCCOCCOCC(=O)O; Sar = CNCC(=O)O

In the case of `COCCOCCOCC(=O)NCC[N+](C)(C)CC(=O)N[C@@H]1C(=O)N[C@@H](CC(=O)N(C)C)C(=O)N[C@@H]([C@@H](C)O)C(=O)N[C@@H](Cc2c[nH]c3c(C)cccc23)C(=O)N[C@@H](CCCCN(C)C(C)=O)C(=O)N[C@H](C(=O)N[C@@H](Cc2ccc(OCCN)cc2)C(=O)N[C@@H](Cc2ccc3ccccc3c2)C(=O)NC2(C(=O)N[C@@H](CCCCNC(C)=O)C(=O)N[C@@H](CC(N)=O)C(=O)N[C@@H](Cc3cccnc3)C(=O)N(C)CC(N)=O)CCOCC2)C(C)(C)SSC1(C)C` [compound 148, mPEG3CO-SP6-Pen(3)-N(N(Me)2)-T-7MeW-K(NMeAc)-Pen(3)-AEF-2Nal-THP-K(Ac)-N-3Pya-Sar-CONH2] ({Decanoyl(3,6,9-trioxa)}-[X24][Pen]D(NMe2)T[Trp(7-Me)][Lys(Me)](Ac)[Pen][AEF][2Nal][Thp]K(Ac)N[3Pal][Sar]-NH2; disulfide 2-7), the IC50 at IL-23R turned out to be 2.6 nM. Besides, the EPSA in data set [1] was determined as 153 A^2.

In the case of `CC(=O)N(C)CCCC[C@@H]1NC(=O)[C@H](Cc2c[nH]c3c(C)cccc23)NC(=O)[C@H]([C@@H](C)O)NC(=O)[C@H](CC(=O)N(C)C)NC(=O)[C@@H](NC(=O)CCOCCOCC[N+](C)(C)C)C(C)(C)SSC(C)(C)[C@@H](C(=O)N[C@@H](Cc2ccc(OCCN)cc2)C(=O)N[C@@H](Cc2ccc3ccccc3c2)C(=O)NC2(C(=O)N[C@@H](CCN(C)C(C)=O)C(=O)N[C@@H](CC(N)=O)C(=O)N[C@@H](Cc3cccnc3)C(=O)N(C)CC(=O)N(C)C)CCOCC2)NC1=O` [compound 177, cPEG3aCO-Pen(3)-N(N(Me)2)-T-7MeW-K(NMeAc)-Pen(3)-AEF-2Nal-THP-Dab(NMeAc)-N-3Pya-Sar-CON(Me)2] ({Me3N+(CH2)2O(CH2)2O(CH2)2CO}-[Pen]D(NMe2)T[Trp(7-Me)][Lys(Me)](Ac)[Pen][AEF][2Nal][Thp][Dab(NMeAc)]N[3Pal][Sar]-NMe2; disulfide 1-6), the IC50 at IL-23R was 2 nM. Moreover, the EPSA in data set [1] was 149 A^2.

For `CCCCCCCCCCCCCC(=O)N[C@@H](CCC(=O)NCCOCCOCC(=O)NCCOCCOCC(=O)NCCCC[C@H](NC(=O)[C@H](Cc1ccc2ccccc2c1)NC(=O)[C@H](Cc1ccc(OCCCCC[N+](C)(C)C)cc1)NC(=O)[C@H]1NC(=O)[C@H](CCCCN(C)C(C)=O)NC(=O)[C@H](Cc2c[nH]c3c(C)cccc23)NC(=O)[C@H]([C@@H](C)O)NC(=O)[C@H](CC(=O)N(C)C)NC(=O)[C@@H](NC(=O)[C@@H](CCCCC[N+](C)(C)C)NC(=O)COCCOCCNC(=O)COCCOCCNC(=O)CC[C@H](NC(=O)CCCCCCCCCCCCC)C(=O)O)C(C)(C)SSC1(C)C)C(=O)N[C@@H](CC(N)=O)C(=O)N[C@@H](Cc1cccnc1)C(=O)N(C)CC(=O)N(C)C)C(=O)O` [compound 570, C14gEPEG2PEG2CO-hk(Me)3-Pen(3)-N(N(Me)2)-T-7MeW-K(NMeAc)-Pen(3)-TMAPF-2Nal-K(PEG2PEG2gEC14)-N-3Pya-Sar-CON(Me)2] ({Myristoyl-γGlu-AEEA-AEEA}-[d(hLys(Me3))][Pen]D(NMe2)T[Trp(7-Me)][Lys(Me)](Ac)[Pen]Y(X3)[2Nal]K([AEEA-AEEA-γGlu-Myristoyl])N[3Pal][Sar]-NMe2; disulfide 2-7), the IC50 at IL-23R came to 29 nM. In data set [1], the EPSA amounted to 154 A^2.

Turning to `CC(=O)NCCCC[C@@H]1NC(=O)[C@H](Cc2c[nH]c3c(C)cccc23)NC(=O)[C@H]([C@@H](C)O)NC(=O)[C@H](CC(N)=O)NC(=O)[C@@H](NC(=O)COc2ccc(-c3ccc(F)cc3F)cc2C(=O)O)C(C)(C)SSC(C)(C)[C@@H](C(=O)N[C@@H](Cc2ccc(OCCCCC[N+](C)(C)C)cc2)C(=O)N[C@@H](Cc2ccc3ccccc3c2)C(=O)NC2(C(=O)N[C@@H](CCCCNC(C)=O)C(=O)N[C@@H](CC(N)=O)C(=O)N[C@@H](Cc3cccnc3)C(=O)N(C)CC(N)=O)CCOCC2)NC1=O` [compound 527, DFNCO-Pen(3)-N-T-7MeW-K(Ac)-Pen(3)-TMAPF-2Nal-THP-K(Ac)-N-3Pya-Sar-CONH2], at IL-23R, the IC50 was determined as 3.7 nM. For the same compound, the EPSA in data set [1] stood at 189 A^2.

As to `CC(=O)N(C)CCCC[C@@H]1NC(=O)[C@H](Cc2c[nH]c3c(C)cccc23)NC(=O)[C@H]([C@@H](C)O)NC(=O)[C@H](CC(=O)N(C)C)NC(=O)[C@@H](NC(=O)CCOCCOCC[N+](C)(C)C)C(C)(C)SSC(C)(C)[C@@H](C(=O)N[C@@H](Cc2ccc(N3CC[N+](C)(C)CC3)cc2)C(=O)N[C@@H](Cc2ccc3ccccc3c2)C(=O)NC2(C(=O)N[C@@H](CCCCN(C)C(C)=O)C(=O)N[C@@H](CC(N)=O)C(=O)N[C@@H](Cc3cccnc3)C(=O)N(C)CC(=O)N(C)C)CCOCC2)NC1=O` [compound 273, cPEG3aCO-Pen(3)-N(N(Me)2)-T-7MeW-K(NMeAc)-Pen(3)-PiperazinequatF-2Nal-THP-K(NMeAc)-N-3Pya-Sar-CON(Me)2] ({Me3N+(CH2)2O(CH2)2O(CH2)2CO}-[Pen]D(NMe2)T[Trp(7-Me)][Lys(Me)](Ac)[Pen][X64][2Nal][Thp][Lys(Me)](Ac)N[3Pal][Sar]-NMe2; disulfide 1-6), on IL-23R, the IC50 turned out to be 2.6 nM. Besides, the EPSA in data set [1] is 157 A^2.

On to `CC(=O)NCCCC[C@@H]1NC(=O)[C@H](Cc2c[nH]c3c(C)cccc23)NC(=O)[C@H]([C@@H](C)O)NC(=O)[C@H](CC(N)=O)NC(=O)[C@@H](NC(C)=O)C(C)(C)SSC(C)(C)[C@@H](C(=O)N[C@@H](Cc2ccc(OCCOCCOCC[N+]3(C)CCN(C)CC3)cc2)C(=O)N[C@@H](Cc2ccc3ccccc3c2)C(=O)NC2(C(=O)N[C@@H](CCCCNC(C)=O)C(=O)N[C@@H](CC(N)=O)C(=O)N[C@@H](Cc3cccnc3)C(=O)N(C)CC(N)=O)CCOCC2)NC1=O` [compound 434] (Ac-[Pen]NT[Trp(7-Me)]K(Ac)[Pen]Y(X22)[2Nal][Thp]K(Ac)N[3Pal][Sar]-NH2; disulfide 1-6 (inferred)), for which the IC50 on IL-23R is 3.1 nM. Moreover, the EPSA in data set [1] worked out at 156 A^2.

Take `CC(=O)NCCCC[C@@H]1NC(=O)[C@H](Cc2c[nH]c3c(C)cccc23)NC(=O)[C@H]([C@@H](C)O)NC(=O)[C@H](CC(N)=O)NC(=O)[C@@H](NC(=O)[C@@H](CCCNC(=N)N)NC(C)=O)C(C)(C)SSC(C)(C)[C@@H](C(=O)N[C@@H](Cc2ccc(OCCCCC[N+](C)(C)C)cc2)C(=O)N[C@@H](Cc2ccc3ccccc3c2)C(=O)NC2(C(=O)N[C@@H](CCCCNC(C)=O)C(=O)N[C@@H](CC(N)=O)C(=O)N[C@@H](Cc3cccnc3)C(=O)N(C)CC(N)=O)CCOCC2)NC1=O` [compound 558, MeCO-r-Pen(3)-N-T-7MeW-K(Ac)-Pen(3)-TMAPF-2Nal-THP-K(Ac)-N-3Pya-Sar-CONH2] (Ac-[dR][Pen]NT[Trp(7-Me)]K(Ac)[Pen]Y(X3)[2Nal][Thp]K(Ac)N[3Pal][Sar]-NH2; disulfide 2-7): at IL-23R, the IC50 stood at 4.1 nM. For the same compound, the EPSA in data set [1] was determined as 174 A^2.

On to `COCCOCCOCC(=O)NCC[N+](C)(C)CC(=O)N[C@@H]1C(=O)N[C@@H](CC(=O)N(C)C)C(=O)N[C@@H]([C@@H](C)O)C(=O)N[C@@H](Cc2c[nH]c3c(C)cccc23)C(=O)N[C@@H](CCCCN(C)C(C)=O)C(=O)N[C@H](C(=O)N[C@@H](Cc2ccc(OCCOCCOCC[N+](C)(C)C)cc2)C(=O)N[C@@H](Cc2ccc3ccccc3c2)C(=O)NC2(C(=O)N[C@@H](CCCCN(C)C(C)=O)C(=O)N[C@@H](CC(N)=O)C(=O)N[C@@H](Cc3cccnc3)C(=O)N(C)CC(=O)N(C)C)CCOCC2)C(C)(C)SSC1(C)C` [compound 225, mPEG3CO-SP6-Pen(3)-N(N(Me)2)-T-7MeW-K(NMeAc)-Pen(3)-APEG3F-2Nal-THP-K(NMeAc)-N-3Pya-Sar-CON(Me)2] ({Decanoyl(3,6,9-trioxa)}-[X24][Pen]D(NMe2)T[Trp(7-Me)][Lys(Me)](Ac)[Pen]Y(CH2CH2OCH2CH2OCH2CH2NMe3+)[2Nal][Thp][Lys(Me)](Ac)N[3Pal][Sar]-NMe2; disulfide 2-7), for which the IC50 on IL-23R is 4.1 nM. In data set [1], the EPSA stood at 136 A^2.

In the case of `CC(=O)N(C)CCCC[C@H](NC(=O)[C@H](CC(C)C)NC(=O)[C@H](Cc1ccc2ccccc2c1)NC(=O)[C@H](Cc1ccc(OCCCCC[N+](C)(C)C)cc1)NC(=O)[C@H]1NC(=O)[C@H](CCCCN(C)C(C)=O)NC(=O)[C@H](Cc2c[nH]c3c(C)cccc23)NC(=O)C([C@@H](C)O)NC(=O)[C@H](CC(=O)N(C)C)NC(=O)[C@@H](NC(=O)CCOCCOCC[N+](C)(C)C)C(C)(C)SSC1(C)C)C(=O)N[C@@H](CC(N)=O)C(=O)N[C@@H](Cc1cccnc1)C(=O)N(C)CC(=O)N(C)C` (stereo partly drawn) [compound 487, cPEG3aCO-Pen(3)-N(N(Me)2)-T-7MeW-K(NMeAc)-Pen(3)-TMAPf-2Nal-L-K(NMeAc)-N-3Pya-Sar-CON(Me)2] ({Me3N+(CH2)2O(CH2)2O(CH2)2CO}-[Pen]D(NMe2)[ξThr(3R)][Trp(7-Me)][Lys(Me)](Ac)[Pen]Y(X3)[2Nal]L[Lys(Me)](Ac)N[3Pal][Sar]-NMe2; disulfide 1-6), at IL-23R, the IC50 is 3.4 nM. For the same compound, the EPSA in data set [1] came to 164 A^2.
